Measurements published in the METLIN SMRT retention time set (Domingo-Almenara et al. 2019).

Experiment: gradient 5% acetonitrile 3 min, to 50% in 2 min, to 85% in 15 min, held 3 min, 100 µL/min
Conditions: column: Zorbax Extend-C18 2.1 x 50 mm; eluents: water / acetonitrile, 0.1% formic acid
In short: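 The system's dead and dwell volumes were 40 μL and 900 μL, with a Zorbax Extend-C18 column (2.1 × 50 mm, 1.8 μm) run at 100 μL/min in water and acetonitrile containing 0.1% formic acid each. Pure standards were analyzed in mixtures of ~100 molecules by HPLC–quadrupole time-of-flight mass spectrometry in positive and negative ionization mode. Retention time was assigned from computationally picked, manually inspected adduct peaks.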

Compound | RP-LC retention time [s]
C=CCN1C(=O)C(C(=O)N2CCOCC2)C2CC1(C)Oc1ccccc12 (stereo not given) | 718
CCc1cc(N2CCN(C(=O)COc3ccc(OC)cc3)CC2)nc2nncn12 | 602
O=C(Nc1c(-c2ccc(F)cc2)nc2ccccn12)c1ccc(F)cc1 | 671
Cc1cc(Br)ccc1NC(=O)C1CCN(c2cc(=O)n(C)c(=O)n2C)CC1 | 745
O=C(NCCc1ccc(Cl)cc1)C(=O)Nc1ccc(F)cc1F | 971
O=C(NC1CCN(Cc2ccccc2)CC1)C1CC(=O)N(c2n[nH]c3cccc(F)c23)C1 (stereo not given) | 591
NC(=O)[C@@H](CCC(F)(F)F)N(Cc1ccc(-c2ncon2)cc1F)S(=O)(=O)c1ccc(Cl)cc1 | 1030
Cc1ccc(N2CCC(NC(=O)c3ccccc3)C2=O)cc1 (stereo not given) | 794
CCNc1cc(N2CCC(CCC(=O)Nc3ccc(OC)cc3OC)CC2)ncn1 | 665
COC(=O)C1=CN(c2cccc(C(F)(F)F)c2)c2ccccc2S1(=O)=O | 900
CSc1nc2cc(Oc3cccc(Cl)c3Cl)c(Cl)cc2[nH]1 | 1080
CCc1ccc(OCC(=O)Nc2nnc(SCc3nnc(-c4ccccc4C)o3)s2)cc1 | 1070
CCn1cnc(S(=O)(=O)N2CCC(C(=O)N3CCc4ccccc43)CC2)c1 | 754
CN1C(=O)C(CC(=O)Nc2cccnc2)=C2CCCCC21 (stereo not given) | 564
COc1ccccc1NC(=O)N1CCC(n2c(C(F)(F)F)nc3cccnc32)CC1 | 898
COc1ccc(NC(=O)N2CCCN(C3CCN(CC4CC4)C3=O)CC2)cc1Cl (stereo not given) | 569
Cc1cnc(SCc2ccc(Cl)cc2Cl)[nH]c1=O | 970
COc1ccc(NC(=O)Cn2nc(C(=O)N3CCCC3)c3ccccc32)c(OC)c1 | 822
Cc1nc(Nc2ccccc2)sc1C(=O)Nc1cccc(F)c1 | 998
CCNC(=O)N1CC(c2nc(-c3ccc(F)cc3)no2)C2(CCOCC2)C1 (stereo not given) | 751
CCCN1C(=O)COc2ccc(-c3noc(C4CC(=O)N(c5ccc(C)c(C)c5)C4)n3)cc21 (stereo not given) | 1060
CS(=O)(=O)N1C[C@@H](COc2cccnc2)[C@H](c2ccccn2)C1 | 554
O=C(Cn1nc2ccc(SCc3ccc(Cl)cc3)nn2c1=O)NC1CCCCC1 | 870

Compound | RP-LC retention time [s]
CCOC(=O)c1c(C)[nH]c(C(=O)N2CCCC(C(=O)NCCN3CCCCCC3)C2)c1C (stereo not given) | 578
COc1ccc(N2CC(c3noc(-c4cc(F)cc(F)c4)n3)CC2=O)cc1OC (stereo not given) | 899
CN1CCN(S(=O)(=O)c2cccc(C#N)c2)CC1c1ccc(F)cc1 (stereo not given) | 579
O=c1c(S(=O)(=O)N2CCCCCC2)cccn1Cc1ccccc1F | 941
CCCCn1cnc2c(-c3ccccc3)cn(CC(=O)NCCC(C)C)c2c1=O | 1050
C=CCn1ccc2c(OCC(=O)Nc3ccc4c(c3)OCCO4)cccc2c1=O | 818
CCc1ccc(C2=C(C)C(N3CCCN(C(=O)C4CCOC4)CC3)=NS2(=O)=O)cc1 (stereo not given) | 749
COC(=O)CNC(=O)NCCn1c(-c2ccc(F)cc2)nc2ccccc21 | 696
Cc1cccc(N2C(=O)CN(CCC(C)C)[C@H]3CS(=O)(=O)C[C@H]32)c1 | 811
COc1ccc(N2CCN(C(=O)C3(CCO)CC34CCOCC4)CC2)cc1 (stereo not given) | 628
COc1ccc(NC(=O)c2ccc(N3C(=O)CCC3=O)cc2)c2ccccc12 | 691
COc1cccc(-c2noc(C3CCCN3C(=O)Nc3ccc4c(c3)OCCO4)n2)c1 (stereo not given) | 886
Cn1c(CCNC(=O)c2ccccc2F)nc2cccnc21 | 591
O=C(NCCc1ccccc1)C1CCCN(C(=O)c2cc(-c3ccccn3)n[nH]2)C1 (stereo not given) | 705
CCn1nccc1C(=O)N1CCC2(CC1)N=C(c1ccc(C)cc1)NO2 | 734
Cc1ccc(N2C(=O)C3N=NN(Cc4nc(-c5ccc(OC(C)C)cc5)no4)C3C2=O)cc1 (stereo not given) | 1110
O=C(NC1CCN(c2cc(-c3ccccc3)[nH]n2)C1)c1cccs1 (stereo not given) | 630
CCOc1ccccc1CNC(=O)C1CCN(S(=O)(=O)c2ccc3c(c2)sc(=O)n3C)CC1 | 878
COc1c(C(=O)N2CCN(C3CCCCC3)CC2)sc2ccc(F)cc12 | 685
CCOC(=O)N1CCN(C(=O)Cc2c(C)nn(-c3nc(-c4ccccc4)cs3)c2C)CC1 | 998
Cc1ccc(CCC(=O)Nc2nc(-c3ccc4c(c3)N(C)C(=O)C(C)O4)cs2)cc1 (stereo not given) | 1070
O=C(Nc1nc2c(Cl)cccc2s1)C1COc2ccccc2O1 (stereo not given) | 983
CC(C)N1C(=O)C2(CCCCC2)C1C(=O)N1CCOCC1 (stereo not given) | 633

Compound | RP-LC retention time [s]
Cc1ccoc1C(=O)N1CCC2(CCC2O)CC1 (stereo not given) | 645
O=C(Nc1cccc(-c2ccc(N3CCOCC3)nn2)c1)Nc1ccc(F)cc1F | 723
CC(C)N1CCN(S(=O)(=O)c2ccc(-c3nnc(C4CC4)o3)o2)CC1 | 611
O=C(NCC1CCCO1)C1CCN(c2nnc(-c3ccccc3)o2)CC1 (stereo not given) | 649
CCc1cc(N2CCN(C(=O)COc3ccc(Cl)cc3)CC2)nc2nncn12 | 651
CC(C)Cc1ccc(S(=O)(=O)N(C)CC2CCOCC2)cc1 | 1010
COc1ccccc1-c1noc(-c2nnn3c2COC(c2ccc(Cl)cc2)C3)n1 (stereo not given) | 1220
COc1ccccc1N=NNc1ccccc1OC | 933
COc1cc(NC(=O)CN2CCN(Cc3ccc(C)cc3)C(=O)C2=O)cc(OC)c1OC | 709
Cc1oc(-c2[nH]ncc2C(=O)N(C)C)cc1S(=O)(=O)NCc1cccnc1 | 559
Cc1cccn2c(=O)c(-c3nn[nH]n3)cnc12 | 646
COc1cc(NC(=O)N2CCN(CCn3c(C(F)(F)F)nc4cccnc43)CC2)cc(OC)c1 | 642
O=C(C1=CN(c2ccccc2)c2cc(Cl)ccc2S1(=O)=O)N1CCCC1 | 827
Cc1cn2c(S(=O)(=O)NC3CCCCCC3)c(C(C)C)nc2s1 | 1050
CSc1ccc(CNC(=O)c2[nH]c3cc(C)sc3c2CN2CCOCC2)cc1 | 709
O=C(Nc1ccc2c(c1)OCCO2)C1(CCO)CCN(c2ncccn2)C1 (stereo not given) | 606
CC(C)Cn1c(=O)c2ccccc2n(Cc2nc(-c3ccc(Cl)cc3)no2)c1=O | 1240
CCN(CC)S(=O)(=O)c1ccc2c(c1)CC(C(=O)NCc1ccc(N(C)C)cc1)N2C(C)=O (stereo not given) | 669
CCOC(=O)C1CCCN(C(=O)c2cc3c(=O)n(C)c(=O)n(C)c3s2)C1 (stereo not given) | 674
COc1ccc(CC(=O)N2C[C@@H]3C[C@H]2C[C@@H]3NC(=O)c2ccccc2)c(Cl)c1 | 738
COc1ccccc1C(=O)Nc1c(-c2ccc(F)cc2)nc2ccccn12 | 676
O=C(O)/C=C\C(=O)Nc1nccs1 | 646
Cc1ccc(CCNC(=O)C2CCCN(c3ncnc4c3nc3n4CCCCC3)C2)cc1 (stereo not given) | 897

Compound | RP-LC retention time [s]
O=C(NCCN1CCCCC1)C1CCc2sc(C(=O)N3CCCC3)cc2C1 (stereo not given) | 534
Cc1ccc(C(=O)N2CC(Cn3c(C)cnc3C3CCOCC3)C2)s1 | 600
Cc1ccc(NC(=O)Cn2cnc3nc(N4CCCC(C(=O)NC5CC5)C4)sc3c2=O)cc1C (stereo not given) | 693
COc1cccc(Cn2cnc3c(-c4ccc(F)cc4)csc3c2=O)c1 | 1050
Cc1ccc(NC(=O)N(C)CC2CCOCC2)cc1F | 748
COc1ccc(CNC(=O)Cn2c(=O)cc(-c3nc(C)no3)c3ccccc32)cc1OC | 746
CCOc1ccc(C(=O)NC2CCN(c3cc(-c4cccs4)[nH]n3)C2)cc1 (stereo not given) | 658
CCOC(=O)c1cnn2c(SC)ncnc12 | 776
O=C(NC1CCCC1)c1nc(C(=O)N2CCN(c3ccccc3)CC2)cs1 | 897
CCCCOC(=O)CC1C(=O)NCCN1C(=O)c1cc(Br)ccc1OCC (stereo not given) | 841
CCOc1ccccc1NC(=O)N1CCC2(C1)C(=O)Nc1ccc(OC)cc12 (stereo not given) | 810
C=C1C(=O)OC2C1CCC(C)C1(O)C=CC(=O)C21C (stereo not given) | 722
O=C(NCCCN1CCCCC1)C1CCCN(c2cnc3nccnc3c2)C1 (stereo not given) | 560
COC(=O)c1nnn(-c2ccc(C)cc2)c1C(=O)OC | 623
CCn1c(=O)sc2cc(S(=O)(=O)N3CCC(C(=O)Nc4cccc(C)n4)CC3)ccc21 | 768
CCN1CCC(n2cc(CNc3cc(Cl)c4ncc(C#N)c(Nc5ccc(F)c(Cl)c5)c4c3)nn2)CC1 | 727
Cc1ccc(CNC(=O)Cn2nc(N3CCCCCC3)c3ccccc3c2=O)cc1 | 1100
COc1cccc(-n2ccc(=O)c(-c3nc(-c4cccc(F)c4)no3)n2)c1 | 905
CCOc1ccc(-c2noc(Cn3nc(-c4ccc(CC)cc4)ccc3=O)n2)cc1 | 597
CCOC(=O)c1ccc(NC(=O)C2CCN(S(=O)(=O)c3ccc4[nH]c(=O)ccc4c3)CC2)cc1 | 783
COc1ccc(C(=O)N2C[C@@H]3C[C@H](NC(=O)c4cccs4)[C@H]2C3)cc1F | 733
